Assay results from patent US10881679B2, “Application of a phillyrin/phillygeninin composition in preparing a medicine or health care product for alleviating or/and treating viral diseases, and medicine or health care product for treating viral diseases” (priority 2014, dated 2021).
Marks after values point to notes of the source that are not given here.

Assays:
[1] = tested on: influenza virus; format: in vivo, Kunming mice; details: 13.0 mg/kg/d i.g. 5 days
[2] = tested on: Coxsackievirus A16 (CoxA16); test: Impact on virus-induced cytopathic effect in Vero cells (MTT): CoxA16; format: cell-based; details: CoxA16 100TCID50, Vero, 72 h; drug g/L as Table 1-2
[3] = tested on: Herpes zoster simplex viruses type I (HSV-I); test: Impact on virus-induced cytopathic effect in Vero cells (MTT): HSV-I; format: cell-based; details: HSV-I 100TCID50, Vero, 72 h; drug g/L as Table 1-2
[4] = tested on: enterovirus EV71; test: Impact on virus-induced cytopathic effect in Vero cells (MTT): EV71; format: cell-based; details: EV71 100TCID50, Vero, 72 h; drug g/L as Table 1-2
[5] = tested on: parainfluenza virus; format: in vivo, Kunming mice; details: 13.0 mg/kg/d i.g. 5 days
[6] = tested on: parainfluenza virus; test: Impact on virus-induced cytopathic effect in Vero cells (MTT): parainfluenza virus; format: cell-based; details: parainfluenza virus 100TCID50, Vero, 72 h; drug g/L as Table 1-2
[7] = tested on: respiratory syncytial virus (RSV); test: Impact on virus-induced cytopathic effect in Vero cells (MTT): RSV; format: cell-based; details: RSV 100TCID50, Vero, 72 h; drug g/L as Table 1-2
[8] = tested on: sweat secretion of rat paws; test: Sweat secretion of rat paws (coloring method); format: in vivo, Wistar rats; details: dose not given
Text: The test is based on a mechanism that distribution of sweat glands is present in footpads of rat paws, the amount of sweat secretion and variation thereof can be observed by using a mechanism that a purple color can be produced by contacting iodine and starch when encountered with sweat.
500 Wistar rats with equal male and female number were used, weighing of 120˜150 g. These rats were randomly divided into 50 groups by weight and gender, i.e., namely 5 groups for the control groups (0.5% methyl cellulose), 5 groups for phillyrin groups, 5 groups for phillygeninin groups, 5 groups for the low, medium and high dose groups (2.5, 5, 10 mg/kg, respectively) of phillyrin/phillygeninin compositions A and B respactively, and 5 groups for the positive drug pilocarpine groups (35 mg/kg). Each group has 10 rats, 10 groups of rates are used for each test, which has 5 time periods (1, 5, 10, 15 and 20 min). The rats were placed into a self-made rat fixation bag, and both hind limbs of the rats were exposed. Dirt on the right paws was gently cleaned away using cotton swabs containing anhydrous alcohol. Pilocarpine solution was administered by subcutaneous injection, the remaining groups were subjected to intragastric administration. At 1 h (30 min for the pilocarpine group) after administration, pre-existing sweat and sweat generated due to struggle on the right paw of each rat in each group was gently wiped away with dry cotton swabs, then the paws were coated with solution A (dissolving 2 g iodine in 100 ml anhydrous alcohol) of Hetian-gaoyuanshi's reagent. After complete dryness, the paws were thinly coated with solution B (uniform mixture of 50 g soluble starch and 100 ml castor oil) of Hetian-gaoyuanshi's reagent. The color and number of dark purple coloring spots (i.e. sweat spots) were carefully observed at 1, 5, 10, 15 and 20 min after the coating of the solution B respectively with magnifying glass. After the test was completed, statistical treatment was performed according to the rank sum test with two-sample comparison, thereby comparing the differences among the various groups.

[9] = tested on: parainfluenza virus; format: in vivo, Kunming mice; details: 13.0 mg/kg/d i.g. 5 days; remark: listed apart in the source
[10] = tested on: rat fever induced by beer yeast; test: Rat fever induced by beer yeast (Saccharomyces cerevisiae); format: in vivo, Wistar rats; details: 10 mg/kg i.g.
Method: Male Wistar rats with a weight of 180˜200 g were used. Normal anal temperature of each rat was measured twice (at a certain interval) with a WSC-411P portable digital thermometer, and a mean of the two measurement values was taken as a normal body temperature of the rat. Then, 300 rats with body temperature at 36.5˜38° C. were selected and randomly divided into 30 groups by weight: model groups (0.5% methyl cellulose), phillyrin/phillygeninin compositions A and B that are divided into low, medium and high dose groups (2.5, 5, 10 mg/kg) respectively, phillyrin groups (13 mg/kg), phillygeninin groups (13 mg/kg), and positive drug paracetamol groups (100 mg/kg). Each group has 10 rates, and the test is repeated 3 times for each group. 10 mL/kg of 10% fresh Saccharomyces cerevisiae suspension was subcutaneously injected to the back of the rats of each group to induce fever. After administration of 10% fresh Saccharomyces cerevisiae suspension for 6.0 h, the phillyrin/phillygeninin composition and the paracetamol positive drug were administered by intragastric administration, and the same volume of 0.5% methyl cellulose is administrated to the model group by intragastric administration. Rectal temperatures were respectively measured at 1, 2, 3 and 4 h after the administration. Changes in the body temperature were observed and difference between the groups was compared by inter-group t test processing through antipyretic percentage. The above test was repeated totally 3 times.

[11] = 10 min after coating solution B
[12] = 15 min after coating solution B
[13] = 20 min after coating solution B

COc1cc([C@H]2OC[C@H]3[C@@H]2CO[C@H]3c2ccc(OC)c(OC)c2)ccc1O [Phillygeninin, phillygeninin]
Lung index [1]: 1.302 ± 0.046 | Lung index inhibition rate [1]: 12.51 | antiviral effective rate (ER %) [2]: 50.04% | antiviral effective rate (ER %) [3]: 84.30** % | antiviral effective rate (ER %) [4]: 75.86** % | Hemagglutination titer (InX) [5]: 23.79 | Inhibition rate (%) of hemagglutination titer [5]: 28.15% | antiviral effective rate (ER %) [6]: 80.72** % | antiviral effective rate (ER %) [7]: 80.88** % | Animal number of sweat spots of level + ([8]; 1 min after coating solution B): 1 rats | Animal number of sweat spots of level ++ ([8]; 1 min after coating solution B): 3 rats | Animal number of sweat spots of level +++ ([8]; 1 min after coating solution B): 3 rats | Animal number of sweat spots of level ++++ ([8]; 1 min after coating solution B): 3 rats | Animal number of sweat spots of level − ([8]; 1 min after coating solution B): 0 rats | Animal number of sweat spots of level + ([8]; 5 min after coating solution B): 1 rats | Animal number of sweat spots of level ++ ([8]; 5 min after coating solution B): 3 rats | Animal number of sweat spots of level +++ ([8]; 5 min after coating solution B): 2 rats | Animal number of sweat spots of level ++++ ([8]; 5 min after coating solution B): 4 rats | Animal number of sweat spots of level − ([8]; 5 min after coating solution B): 0 rats | Animal number of sweat spots of level + [8, 11]: 1 rats | Animal number of sweat spots of level ++ [8, 11]: 3 rats | Animal number of sweat spots of level +++ [8, 11]: 1 rats | Animal number of sweat spots of level ++++ [8, 11]: 5 rats | Animal number of sweat spots of level − [8, 11]: 0 rats | Animal number of sweat spots of level + [8, 12]: 1 rats | Animal number of sweat spots of level ++ [8, 12]: 1 rats | Animal number of sweat spots of level +++ [8, 12]: 3 rats | Animal number of sweat spots of level ++++ [8, 12]: 5 rats | Animal number of sweat spots of level − [8, 12]: 0 rats | Animal number of sweat spots of level + [8, 13]: 0 rats | Animal number of sweat spots of level ++ [8, 13]: 1 rats | Animal number of sweat spots of level +++ [8, 13]: 4 rats | Animal number of sweat spots of level ++++ [8, 13]: 5 rats | Animal number of sweat spots of level − [8, 13]: 0 rats | Lung index [9]: 1.357 ± 0.050 | Lung index inhibition rate [9]: 14.69 | Body temperature ([10]; 1 h after administration): 39.31 ± 0.48 °C | antipyretic percentage (%) ([10]; 1 h after administration): −0.33 ± 0.41% | Body temperature ([10]; 2 h after administration): 39.04 ± 0.45 °C | antipyretic percentage (%) ([10]; 2 h after administration): −0.69 ± 0.93 % | Body temperature ([10]; 3 h after administration): 38.91 ± 0.40 °C | antipyretic percentage (%) ([10]; 3 h after administration): −1.03 ± 1.18 % | Body temperature ([10]; 4 h after administration): 38.70 ± 0.31 °C | antipyretic percentage (%) ([10]; 4 h after administration): −1.55 ± 1.23 %

COc1ccc([C@H]2OCC3C2CO[C@H]3c2ccc(O[C@@H]3OC(CO)[C@@H](O)[C@H](O)C3O)c(OC)c2)cc1OC (stereo partly shown) [phillyrin]
Lung index [1]: 1.280 ± 0.040 | Lung index inhibition rate [1]: 14.00 | antiviral effective rate (ER %) [2]: 75.08** % | antiviral effective rate (ER %) [3]: 85.00** % | antiviral effective rate (ER %) [4]: 84.85** % | Hemagglutination titer (InX) [5]: 23.17 | Inhibition rate (%) of hemagglutination titer [5]: 30.01% | antiviral effective rate (ER %) [6]: 84.96** % | antiviral effective rate (ER %) [7]: 80.40** % | Animal number of sweat spots of level + ([8]; 1 min after coating solution B): 2 rats | Animal number of sweat spots of level ++ ([8]; 1 min after coating solution B): 2 rats | Animal number of sweat spots of level +++ ([8]; 1 min after coating solution B): 2 rats | Animal number of sweat spots of level ++++ ([8]; 1 min after coating solution B): 4 rats | Animal number of sweat spots of level − ([8]; 1 min after coating solution B): 0 rats | Animal number of sweat spots of level + ([8]; 5 min after coating solution B): 1 rats | Animal number of sweat spots of level ++ ([8]; 5 min after coating solution B): 2 rats | Animal number of sweat spots of level +++ ([8]; 5 min after coating solution B): 2 rats | Animal number of sweat spots of level ++++ ([8]; 5 min after coating solution B): 5 rats | Animal number of sweat spots of level − ([8]; 5 min after coating solution B): 0 rats | Animal number of sweat spots of level + [8, 11]: 1 rats | Animal number of sweat spots of level ++ [8, 11]: 1 rats | Animal number of sweat spots of level +++ [8, 11]: 3 rats | Animal number of sweat spots of level ++++ [8, 11]: 5 rats | Animal number of sweat spots of level − [8, 11]: 0 rats | Animal number of sweat spots of level + [8, 12]: 1 rats | Animal number of sweat spots of level ++ [8, 12]: 2 rats | Animal number of sweat spots of level +++ [8, 12]: 4 rats | Animal number of sweat spots of level ++++ [8, 12]: 5 rats | Animal number of sweat spots of level − [8, 12]: 0 rats | Animal number of sweat spots of level + [8, 13]: 0 rats | Animal number of sweat spots of level ++ [8, 13]: 4 rats | Animal number of sweat spots of level +++ [8, 13]: 0 rats | Animal number of sweat spots of level ++++ [8, 13]: 6 rats | Animal number of sweat spots of level − [8, 13]: 0 rats | Lung index [9]: 1.335 ± 0.062 | Lung index inhibition rate [9]: 16.10 | Body temperature ([10]; 1 h after administration): 39.13 ± 0.52 °C | antipyretic percentage (%) ([10]; 1 h after administration): −0.60 ± 0.39% | Body temperature ([10]; 2 h after administration): 38.77 ± 0.42 °C | antipyretic percentage (%) ([10]; 2 h after administration): −0.92 ± 0.93 % | Body temperature ([10]; 3 h after administration): 38.63 ± 0.40 °C | antipyretic percentage (%) ([10]; 3 h after administration): −1.29 ± 1.18 % | Body temperature ([10]; 4 h after administration): 38.46 ± 0.31 °C | antipyretic percentage (%) ([10]; 4 h after administration): −1.70 ± 1.23 %
